Values of other authors as cited in patent US20230255250A1, “COMPOSITION FOR NUTRITIONAL SUPPLEMENTATION THAT PREVENTS DAMAGE CAUSED BY OXIDATIVE STRESS, HAVING AS PRINCIPLES XANTHOPHYLLS FROM MICROALGAE” (priority 2022, published 2023).

Columns and labels:
[1] = doses less than 500 mg/kg intravenously
[2] = water at room temperature

- solubility in water [2]: greater than 500 mg/mL
Substance: 2-Hydroxylpropyl-beta-cyclodextrin [HP-β-CD]
- toxicity [1]: not toxic
- regulation of molecules such as MHC proteins, and of PD-L1/L2 (dendritic cells; HP-β-CD stimulated dendritic cells): remarkable regulation
- production of IL-6 (dendritic cells; treated with HP-β-CD): increased
- production of IL-10 (dendritic cells; treated with HP-β-CD): increased
- production of TNF-α (dendritic cells; treated with HP-β-CD): increased
- proliferation and activation of T lymphocytes (T lymphocytes): induces proliferation and activation
